According to US20220211038A1, “COMPOSITION AND METHOD FOR PROTECTING PLANT AGAINST DISEASE AND PEST” (SUMITOMO CHEMICAL COMPANY, LIMITED, priority 2019, published 2022):

How the values were obtained:
[1] = test system: powdery mildew (Sphaerotheca fuliginea); assay: Cucumber powdery mildew control, spray on plantlets (Test Example 2); type: in vivo; settings: 10 days
Text: Fluopyram and fluxapyroxad were respectively mixed with surfactant and crushed in a grinding equipment to obtain a crushed composition. The crushed composition was then mixed with tap water so as to have the compound at the concentration described in Table 2 to obtain spray liquid. The spray liquid was sprayed onto cucumber (Cultivar: Hanjiro Fushinari) plantlet at run-off water volume. Plantlets were then air dried before artificially inoculated by putting the test plantlets in the same room where cucumber with powdery mildew (Sphaerotheca fuliginea) symptoms were grown. The plantlet were grown in the room for 10 days and the degree of disease severity on leaves was measured (hereinafter referred to as “treated group”).
The same operation was carried out […] (hereinafter referred to as “untreated group”).
The controlling value was calculated from each of the obtained degree of disease severity on leaves of the treated group and the untreated group respectively by the following “Equation 2”.
Controlling value (%)=100×(X−Y)/X Equation 2
X: Degree of disease severity on leaves in the untreated group
Y: Degree of disease severity on leaves in the treated group

[2] = test system: Septoria leaf blotch (Mycosphaerella graminicola); assay: Growth inhibition of Septoria leaf blotch in YBG medium, microtiter plate, absorbance at 600 nm (Test Example 1); type: cell-based; settings: 18° C., four days
Experimental: Fluopyram and fluxapyroxad were respectively dissolved in dimethyl sulfoxide, and agent solutions were prepared so that the concentration of each compound was 100 times the concentration described in Table 1. The agent solution was dispensed into each well of a microtiter plate (96 wells) in 1 μl portion, and then 99 μL of YBG medium to which conidia of Septoria leaf blotch (Mycosphaerella graminicola) was inoculated in advance (which was prepared by dissolving 10 g of yeast extract, 10 g of Bacto Peptone, and 20 mL of glycerol into 1 L of water, followed by sterilizing the medium) was dispensed into each of the well to which the agent solution was dispensed. The plate was cultivated at 18° C. for four days, thereby allowing Septoria leaf blotch to undergo proliferation, and the absorbance at 600 nm of a sample in each well of the microtiter plate was then measured to examine a degree of growth of Septoria leaf blotch (hereinafter referred to as “treated group”). Whereas, Septoria leaf blotch was grown similarly to the case of the treated group using dimethyl sulfoxide instead of the agent solution, and the degree of growth was measured (hereinafter referred to as “untreated group”). The efficacy was calculated from each of the obtained degree of growth of the treated group and the untreated group respectively by the following “Equation 1”.
Efficacy (%)=100×(X−Y)/X Equation 1
X: Degree of growth of fungus in the untreated group
Y: Degree of growth of fungus in the treated group

Row | SMILES | Controlling value (%) ([1]; Fluxapyroxad 0.4 mg/L alone) | Controlling value (%) ([1]; Fluxapyroxad 2.0 mg/L alone) | Efficacy (%) ([2]; Fluxapyroxad 0.18 ppm alone) | Efficacy (%) ([2]; Fluxapyroxad 0.5 ppm alone) | Controlling value (%) ([1]; Fluopyram 0.4 mg/L alone) | Controlling value (%) ([1]; Fluopyram 4.0 mg/L alone) | Efficacy (%) ([2]; Fluopyram 0.1 ppm alone) | Efficacy (%) ([2]; Fluopyram 1.75 ppm alone)
1 | Cn1cc(C(=O)Nc2ccccc2-c2cc(F)c(F)c(F)c2)c(C(F)F)n1 [Fluxapyroxad] | 16 | 34 | 71 | 82 | – | – | – | –
2 | O=C(NCCc1ncc(C(F)(F)F)cc1Cl)c1ccccc1C(F)(F)F [Fluopyram] | – | – | – | – | 32 | 50 | 24 | 60
